Measured values: the NIST ThermoML archive (doi:10.1021/acs.jced.6b00833)
± gives the expanded uncertainty stated by the source.

Settings: 101.33 kPa, Liquid, Vibrating tube method

| mass density (298.15 K) [kg/m3] | mass density (303.15 K) [kg/m3] | mass density (308.15 K) [kg/m3] | mass density (313.15 K) [kg/m3] | mass density (318.15 K) [kg/m3] | mass density (323.15 K) [kg/m3] | mass density (328.15 K) [kg/m3] | mass density (333.15 K) [kg/m3] | mass density (338.15 K) [kg/m3] | mass density (343.15 K) [kg/m3] | mass density (348.15 K) [kg/m3] | mass density (353.15 K) [kg/m3] | mass density (358.15 K) [kg/m3] | mass density (363.15 K) [kg/m3] | mass density (293.15 K) [kg/m3] | Structure (SMILES) | mass density (298.48 K) [kg/m3] |
| --- | --- | --- | --- | --- | --- | --- | --- | --- | --- | --- | --- | --- | --- | --- | --- | --- |
| 1026.76 ± 6.2 | 1023.9 ± 6.2 | 1021.05 ± 6.2 | 1018.22 ± 6.2 | 1015.41 ± 6.1 | 1012.62 ± 6.1 | 1009.85 ± 6.1 | 1007.08 ± 6.1 | 1004.33 ± 6.1 | 1001.6 ± 6.1 | 998.88 ± 6 | 996.18 ± 6 | 993.49 ± 6 | 990.81 ± 6 | – | CCC[N+]1(C)CCCC1.N#CN=C=[N-] [1-methyl-1-propylpyrrolidinium dicyanamide] | – |
| 1097.83 ± 6.9 | 1094.72 ± 6.9 | 1091.64 ± 6.9 | 1088.57 ± 6.8 | 1085.52 ± 6.8 | 1082.49 ± 6.8 | 1079.48 ± 6.8 | 1076.48 ± 6.8 | 1073.49 ± 6.7 | 1070.51 ± 6.7 | 1067.55 ± 6.7 | 1064.6 ± 6.7 | 1061.66 ± 6.7 | 1058.74 ± 6.6 | – | CC(=O)[O-].CCn1cc[n+](C)c1 [1-ethyl-3-methylimidazolium acetate] | – |
| – | – | – | – | – | – | – | – | – | – | – | – | – | – | – | CCCC[N+](C)(C)C.O=S(=O)([N-]S(=O)(=O)C(F)(F)F)C(F)(F)F [butyltrimethylammonium bis(trifluoromethylsulfonyl)imide] | 1392.89 ± 8.4 |
| 950.7 ± 5.9 | 947.9 ± 5.9 | 945 ± 5.9 | 942.1 ± 5.9 | 939.2 ± 5.8 | 936.3 ± 5.8 | 933.5 ± 5.8 | – | – | – | – | – | – | – | – | CCCC[P+](C)(CCCC)CCCC.O=C[O-] [tributylmethylphosphonium formate] | – |
| 1095.41 ± 6.6 | 1090.38 ± 6.5 | 1085.36 ± 6.5 | 1080.34 ± 6.5 | 1075.32 ± 6.5 | 1070.31 ± 6.4 | 1065.29 ± 6.4 | 1060.28 ± 6.4 | 1055.26 ± 6.3 | 1050.23 ± 6.3 | 1045.21 ± 6.3 | 1040.19 ± 6.2 | 1035.15 ± 6.2 | 1030.12 ± 6.2 | 1100.42 ± 6.6 | C[S+](C)[O-] [dimethyl sulfoxide] | – |
